From patent US8497274B2, “Heterocyclic compound and use thereof” (Takeda Pharmaceutical Company Limited, priority 2008, dated 2013) come the findings set out here.

Molecules are shown by their SMILES. Where only a bound is given, the exact number is not on record here.

One experiment addresses BRAF (V600E) kinase (Homo sapiens (Human), UniProt P15056, V600E). In words: BRAF (V600E) kinase inhibitory activity. It is filed as biochemical. The settings on record: BRAF (V600E) enzyme, GSTP1-MEK1 (K96R) substrate, compound 1.0 μM; read-out: Inhibitory rate (%) at 1.0 μM. As to the method: A test compound (2.5 μL) dissolved in dimethyl sulfoxide (DMSO) was added to 37.5 μL of a reaction solution (25 mM HEPES (pH 7.5), 10 mM magnesium acetate, 1 mM dithiothreitol) containing 30 ng of BRAF (V600E) enzyme and 250 ng of recombinant protein GSTP1-MEK1 (K96R) prepared using FreeStyle 293 expression system (Invitrogen), and the mixture was incubated at room temperature for 10 min. 10 μL of ATP solution (2.5 μM ATP, 0.1 μCi [γ-^32P]ATP) was added to the obtained mixture, and the mixture was reacted at room temperature for 20 min. The reaction was quenched by adding 50 μL of ice-cooled 20% trichloroacetic acid (Wako Pure Chemical Industries, Ltd.) to the reaction solution. The reaction solution was allowed to stand at 4° C. for 30 min., and the acid-precipitable fraction was transferred to GF/C filter plate (Millipore Corporation) using cell harvester (PerkinElmer). The plate was dried at 45° C. for 60 min., and 40 μL of MicroScinti 0 (PerkinElmer) was added thereto. The radioactivity was measured using TopCount (PerkinElmer). The kinase inhibitory rate (%) of the test compound was calculated by the following formula: Inhibitory rate (%)=(1−(count of test compound−blank)÷(control−blank))×100
The count of the solution reacted without addition of the compound was used as a “control”, and the count of the solution without the compound and enzyme was used as a “blank”.

Experiment [1] relates to MEK1/2 phosphorylation in human colon cancer cell HT-29. In words: Colon cancer cell HT-29 intracellular MEK phosphorylation inhibitory activity in vitro. It is filed as cell-based. As to conditions: HT-29 cells; for IC50: 2 hrs treatment, phosphorylated MEK1/2 Western blot; for inhibition at 0.5 µM: MEK1/2 protein phosphorylation, compound 0.5 μM, read-out: Inhibitory rate (%) at 0.5 μM. How it is done: 500 μL of a cell suspension of human colon cancer cell HT-29 (purchased from American Type Culture Collection (ATCC)) was plated in a 48-well plate (100,000 cells/well), and the cells were cultured overnight at 37° C. in the presence of 5% CO2, treated with a test compound (250 μL/well) diluted in 3-fold dilution series and cultured for 2 hrs. After 2 hrs, the culture medium containing the test compound was removed, and the cells were lysed with SDS sample buffer (100 μL/well) and heated at 95° C. for 5 min. Thereafter, the cells lysed with SDS sample buffer were applied to SDS-PAGE, and the protein was transferred onto Sequi-Blot™ PVDF Membrane (Bio-Rad) by the Western blot method. The PDVF membrane was blocked with a Block-Ace solution (Snow Brand Milk Products Co., Ltd) dissolved in phosphate buffered saline (MP Biochemicals) to 5% W/V, and reacted overnight with anti-phosphorylated MEK1/2 (Ser217/221) (Cell signaling #9121) diluted 1000-fold with phosphate buffered saline containing 0.4% Block-Ace. The membrane was washed with phosphate buffered saline containing 0.1% Tween 20 (Wako Pure Chemical Industries, Ltd.), and reacted at room temperature for 1 hr with HRP labeled rabbit IgG polyclonal antibody (Cell signaling #7074) diluted 1000-fold with phosphate buffered saline containing 0.4% Block-Ace. The membrane was washed in the same manner as above, chemical luminescence of a phosphorylated MEK1/2 protein labeled with the antibody, which was caused by ECL-plus Detection Reagent (Amersham bioscience), was detected by Luminescent Image Analyzer LAS-1000 (FUJIFILM Corporation). Taking the luminescence of the control group free of the test compound as 100%, the concentration (IC50 value) of the compound necessary for inhibiting the residual luminescence to 50% of the control group was calculated. In addition, MEK1/2 protein phosphorylation inhibitory rate (%) of the test compound at compound concentration 0.5 μM was calculated by the following formula. The results are shown in Table 2-B. Inhibitory rate (%)=(1−(luminescence of test compound−blank)÷(luminescence of control group−blank))×100

In experiment [2] the test system is human colon cancer cell HT-29. The experiment is described as follows: Colon cancer cell HT-29 growth suppressive activity in vitro. It is filed as cell-based. The settings on record: for IC50: 72 h, HT-29 cells, 3 days culture, SRB staining; for inhibition at 10 µM: HT-29 cell proliferation, compound 10 μM, read-out: Inhibitory rate (%) at 10 μM. As to the method:
100 μL of a cell suspension (3,000 cells/well) of human colon cancer cell HT-29 (purchased from ATCC) was plated in a 96-well plate, and the cells were cultured at 37° C. in the presence of 5% CO2. The next day, 100 μL of culture medium containing each test compound diluted in 2-fold dilution was added, and the cells were cultured for 3 days. The culture medium containing the test compound was removed, and the cells were washed with phosphate buffered saline (MP Biochemicals). A 50% trichloroacetic acid solution was added to the final concentration of 10% (v/v), and the mixture was stood overnight at 4° C., whereby the cells were fixed to the plate. Then, a dye SRB 0.4% (w/v) solution (dissolved in 1% acetic acid) was added at 50 μl/well, whereby the cell protein was fixed and stained (Skehan et al., Journal Of National Cancer Institute, vol. 82, pp. 1107-1112, 1990). The cells were washed 3 times with 1% acetic acid solution (200 μL/well), and 100 μL of an extract (10 mM Tris buffer) was added to extract the dye. The absorbance at an absorption wavelength 550 nm was measured, and cell amount was measured as a protein amount. Taking the protein amount of the control group free of the test compound solution as 100%, the proportion of the residual protein amount of each treatment group was determined and the concentration of the compound necessary for suppressing the residual cell amount to 50% of the control (IC50 value) was calculated. In addition, cell proliferation inhibitory rate (%) of the test compound at compound concentration 10 μM was calculated by the following formula. The results are shown in Table 3-B. Inhibitory rate (%)=(1−(absorbance of test compound−blank)÷(absorbance of control group−blank))×100
(In general: The SRB assay estimates cell density from bound dye.)

BRAF (V600E) kinase, sequence (P15056 457-717 V600E): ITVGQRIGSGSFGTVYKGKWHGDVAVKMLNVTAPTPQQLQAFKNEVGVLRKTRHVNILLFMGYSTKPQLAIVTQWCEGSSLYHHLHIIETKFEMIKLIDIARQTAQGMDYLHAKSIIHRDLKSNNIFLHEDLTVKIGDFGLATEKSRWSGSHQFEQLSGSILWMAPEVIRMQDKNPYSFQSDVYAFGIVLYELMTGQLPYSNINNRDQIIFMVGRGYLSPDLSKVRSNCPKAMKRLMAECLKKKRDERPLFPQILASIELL

Turning to `CC(C)(C#N)c1cccc(C(=O)Nc2cccc(Oc3ccc4nc(NC(=O)C5CC5)sc4c3C#N)c2)c1` [Example 1, N-[3-({7-cyano-2-[(cyclopropylcarbonyl)amino]-1,3-benzothiazol-6-yl}oxy)phenyl]-3-(1-cyano-1-methylethyl)benzamide], the inhibition at 1 µM on BRAF (V600E) kinase turned out to be 101%.
On the same count and under the same terms, the result for `CC(=O)Nc1nc2ccc(Oc3cccc(NC(=O)c4cccc(C(C)(C)C#N)c4)c3)c(C#N)c2s1` [Example 11, N-(3-{[2-(acetylamino)-7-cyano-1,3-benzothiazol-6-yl]oxy}phenyl)-3-(1-cyano-1-methylethyl)benzamide] reads 101%; that for `CC(=O)Nc1nc2ccc(Oc3cccc(NC(=O)C(C)(C)c4cccc(Br)c4)c3)c(C#N)c2s1` [Example 13, N-(3-{[2-(acetylamino)-7-cyano-1,3-benzothiazol-6-yl]oxy}phenyl)-2-(3-bromophenyl)-2-methylpropanamide], 98%.
The same measure, in the same setting: next, `CC(=O)Nc1nc2ccc(Oc3cccc(NC(=O)Nc4ccc(Cl)c(C(F)(F)F)c4)c3)c(C#N)c2s1` [Example 21, N-{6-[3-({[4-chloro-3-(trifluoromethyl)phenyl]carbamoyl}amino)phenoxy]-7-cyano-1,3-benzothiazol-2-yl}acetamide]: 100%.
Turning to `CC(=O)Nc1nc2ccc(Oc3cccc(NC(=O)Nc4ccc(C(C)(C)C)cc4)c3)c(C#N)c2s1` [Example 22, N-[6-(3-{[(4-tert-butylphenyl)carbamoyl]amino}phenoxy)-7-cyano-1,3-benzothiazol-2-yl]acetamide], in experiment [1], the IC50 is < 300 nM and the inhibition at 0.5 µM stood at 83%.
Take `N#Cc1c(Oc2ccc(F)c(NC(=O)Nc3ccc(C(F)(F)F)cc3)c2)ccc2nc(NC(=O)C3CC3)sc12` [Example 32, N-{7-cyano-6-[4-fluoro-3-({[4-(trifluoromethyl)phenyl]carbamoyl}amino)phenoxy]-1,3-benzothiazol-2-yl}cyclopropanecarboxamide]: in experiment [1], the IC50 is < 300 nM and the inhibition at 0.5 µM is 83%.
`CC(C)(C#N)c1cccc(C(=O)Nc2cccc(Oc3ccc4nc(NC(=O)C5CC5)sc4c3[N+](=O)[O-])c2)c1` [Example 37, 3-(1-cyano-1-methylethyl)-N-[3-({2-[(cyclopropylcarbonyl)amino]-7-nitro-1,3-benzothiazol-6-yl}oxy)phenyl]benzamide]: in experiment [2], the IC50 is < 500 nM and the inhibition at 10 µM was 93%.
The matching figures for `CC(C)(C#N)c1cccc(C(=O)Nc2cccc(Oc3ccc4nc(NC(=O)C5CC5)sc4c3N)c2)c1` [Example 43, N-[3-({7-amino-2-[(cyclopropylcarbonyl)amino]-1,3-benzothiazol-6-yl}oxy)phenyl]-3-(1-cyano-1-methylethyl)benzamide]: < 500 nM and 100%.
The matching figures for `CC(C)(C#N)c1cccc(C(=O)Nc2cccc(Oc3ccc4nc(NC(=O)C5CC5)sc4c3Cl)c2)c1` [Example 44, N-[3-({7-chloro-2-[(cyclopropylcarbonyl)amino]-1,3-benzothiazol-6-yl}oxy)phenyl]-3-(1-cyano-1-methylethyl)benzamide]: < 500 nM and 93%.
In the case of `CC(=O)Nc1nc2ccc(Oc3cccc(NC(=O)Cc4cccc(C(F)(F)F)c4)c3)c(C#N)c2s1` [Example 49, N-(3-{[2-(acetylamino)-7-cyano-1,3-benzothiazol-6-yl]oxy}phenyl)-2-[3-(trifluoromethyl)phenyl]acetamide], in experiment [1], the IC50 is < 300 nM and the inhibition at 0.5 µM was 63%.
In the case of `N#Cc1c(Oc2cccc(NC(=O)Nc3ccc(C(F)(F)F)nc3)c2)ccc2nc(NC(=O)C3CC3)sc12` [Example 51, N-{7-cyano-6-[3-({[6-(trifluoromethyl)pyridin-3-yl]carbamoyl}amino)phenoxy]-1,3-benzothiazol-2-yl}cyclopropanecarboxamide], on BRAF (V600E) kinase, the inhibition at 1 µM was found to be 100%.
The same measure, in the same setting: the result for `N#Cc1c(Oc2cccc(NC(=O)Nc3ccc(C(F)(F)F)cn3)c2)ccc2nc(NC(=O)C3CC3)sc12` [Example 52, N-{7-cyano-6-[3-({[5-(trifluoromethyl)pyridin-2-yl]carbamoyl}amino)phenoxy]-1,3-benzothiazol-2-yl}cyclopropanecarboxamide] reads 98%.
On to `COC(=O)c1c(Oc2ccc(F)c(NC(=O)Cc3cccc(C(F)(F)F)c3)c2)ccc2nc(NC(=O)C3CC3)sc12` [Example 54, methyl 2-[(cyclopropylcarbonyl)amino]-6-[4-fluoro-3-({[3-(trifluoromethyl)phenyl]acetyl}amino)phenoxy]-1,3-benzothiazole-7-carboxylate], for which, in experiment [1], the concentration for half-maximal inhibition (IC50) was < 300 nM and the inhibition at 0.5 µM is 100%.

The term IC50 denotes the concentration at which inhibition is half-maximal. Read a low IC50 as greater potency in that assay.
